These are literature values, as cited in patent publication US20250339338A1, “BLOOD STORAGE CONTAINER CONTAINING AQUEOUS COMPOSITION FOR THE STORAGE OF RED BLOOD CELLS” (Hemerus Medical, LLC, priority 2013, published 2025).

Each structure is given as a SMILES string.

The subject of the data set is humans. To be noted: in vivo.

In the case of `CCCCC(CC)COC(=O)c1ccccc1C(=O)OCC(CC)CCCC` (stereo not shown) [DEHP, di-ethylhexyl phthalate], the “adverse health effects found in studies in humans” value was “adverse health effects such as respiratory distress, choleostasis, and histological abnormalities of the liver”.
